Reference: patent US7772180B2, “Hepatitis C virus inhibitors” (Bristol-Myers Squibb Company, priority 2006, dated 2010)

Key:
[1] = target: T1, HCV NS3/4A protease complex, BMS strain (UniProt P27958, species not given/STRAIN_BMS); experiment: FRET peptide assay to monitor HCV NS3/4A proteolytic activity (BMS strain); type: biochemical, Hepatitis C virus (genotype 1a); conditions: read-out: HCV Protease (IC50); NS3/4A BMS strain; activity range class
T1 construct: other: NS3/4A BMS strain; activity range class; numeric values, unit not given; said of H77 and J4L6S; fused on or other part: A three-lysine solubilising tail at the C-terminus of NS4A; A His tag is implied by the pET21b vector and Ni-NTA purification; Both are printed for the H77 and J4L6S constructs and apply to BMS by inference
T1 sequence (P27958 1027-1657, change not shown, one chain of several): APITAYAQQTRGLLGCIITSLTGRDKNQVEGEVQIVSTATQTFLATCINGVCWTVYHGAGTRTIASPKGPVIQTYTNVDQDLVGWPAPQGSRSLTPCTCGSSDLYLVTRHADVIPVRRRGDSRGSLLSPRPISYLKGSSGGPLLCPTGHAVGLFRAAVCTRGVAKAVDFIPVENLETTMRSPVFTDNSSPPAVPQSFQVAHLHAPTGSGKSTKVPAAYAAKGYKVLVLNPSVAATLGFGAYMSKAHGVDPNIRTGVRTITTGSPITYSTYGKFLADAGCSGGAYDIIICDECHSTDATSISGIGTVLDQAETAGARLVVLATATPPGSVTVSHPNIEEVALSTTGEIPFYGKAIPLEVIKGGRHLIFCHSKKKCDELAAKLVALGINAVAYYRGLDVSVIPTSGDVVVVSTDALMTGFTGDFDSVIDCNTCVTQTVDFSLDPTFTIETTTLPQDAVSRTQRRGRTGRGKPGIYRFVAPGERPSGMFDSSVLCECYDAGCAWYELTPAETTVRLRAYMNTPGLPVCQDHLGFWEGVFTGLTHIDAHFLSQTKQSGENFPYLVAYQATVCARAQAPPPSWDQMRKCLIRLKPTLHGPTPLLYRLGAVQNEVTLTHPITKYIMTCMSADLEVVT
Outline: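 Purified recombinant NS3/4A complex from genotype 1a BMS strain, 2-3 nM final, with RET S1 EDANS/DABCYL depsipeptide substrate at 2 μM final in HEPES pH 7.5, NaCl, Triton, glycerol, βME. Cleavage followed in real time by fluorescence. For high-potency compounds: 50 μg/ml BSA added, protease lowered to 300 pM.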

[2] = system: HCV replicon (strain 1b) in HUH-7 cells; experiment: HCV replicon FRET assay; type: cell-based, Hepatitis C virus; conditions: Hepatitis C virus, Huh-7, read-out: HCV Pro Replicon (EC50), HCV replicon cell assay; activity range class

| SMILES | IC50 [1] | EC50 [2] |
| --- | --- | --- |
| C=C[C@@H]1C[C@]1(NC(=O)[C@@H]1C[C@@H](Oc2ncc(OC)c3ccc(Cl)cc23)CN1C(=O)[C@@H](Nc1cccc(C(=O)OC(C)(C)C)c1)C(C)(C)C)C(=O)NS(=O)(=O)C1CC1 [210 first isomer, N-(3-(tert-butoxycarbonyl)phenyl)-3-methyl-L-valyl-(4R)-4-((7-chloro-4-methoxy-1-isoquinolinyl)oxy)-N-((1R,2S)-1-((cyclopropylsulfonyl)carbamoyl)-2-vinylcyclopropyl)-L-prolinamide] | 0.6 to 20 nM | 3 to 100 nM |
| C=C[C@@H]1C[C@]1(NC(=O)[C@@H]1C[C@@H](Oc2ncc(OC)c3ccc(Cl)cc23)CN1C(=O)[C@H](Nc1cccc(C(=O)OC(C)(C)C)c1)C(C)(C)C)C(=O)NS(=O)(=O)C1CC1 [210 second isomer, N-(3-(tert-butoxycarbonyl)phenyl)-3-methyl-D-valyl-(4R)-4-((7-chloro-4-methoxy-1-isoquinolinyl)oxy)-N-((1R,2S)-1-((cyclopropylsulfonyl)carbamoyl)-2-vinylcyclopropyl)-L-prolinamide] | 20 to 200 nM | 100 to 1000 nM |
| C=C[C@@H]1C[C@]1(NC(=O)[C@@H]1C[C@@H](Oc2ncc(OC)c3ccc(Cl)cc23)CN1C(=O)[C@@H](Nc1cccc(C(=O)O)c1)C(C)(C)C)C(=O)NS(=O)(=O)C1CC1 [211 first isomer, N-(3-carboxyphenyl)-3-methyl-L-valyl-(4R)-4-((7-chloro-4-methoxy-1-isoquinolinyl)oxy)-N-((1R,2S)-1-((cyclopropylsulfonyl)carbamoyl)-2-vinylcyclopropyl)-L-prolinamide] | 0.6 to 20 nM | 3 to 100 nM |
| C=C[C@@H]1C[C@]1(NC(=O)[C@@H]1C[C@@H](Oc2ncc(OC)c3ccc(Cl)cc23)CN1C(=O)[C@H](Nc1cccc(C(=O)O)c1)C(C)(C)C)C(=O)NS(=O)(=O)C1CC1 [211 second isomer, N-(3-carboxyphenyl)-3-methyl-D-valyl-(4R)-4-((7-chloro-4-methoxy-1-isoquinolinyl)oxy)-N-((1R,2S)-1-((cyclopropylsulfonyl)carbamoyl)-2-vinylcyclopropyl)-L-prolinamide] | > 200 nM | 3 to 100 nM |
| C=C[C@@H]1C[C@]1(NC(=O)[C@@H]1C[C@@H](Oc2ncc(OC)c3ccc(Cl)cc23)CN1C(=O)[C@@H](Nc1cccc(C(=O)NC(C)(C)C)c1)C(C)(C)C)C(=O)NS(=O)(=O)C1CC1 [212 first isomer, N-(3-(tert-butylcarbamoyl)phenyl)-3-methyl-L-valyl-(4R)-4-((7-chloro-4-methoxy-1-isoquinolinyl)oxy)-N-((1R,2S)-1-((cyclopropylsulfonyl)carbamoyl)-2-vinylcyclopropyl)-L-prolinamide] | > 200 nM | 100 to 1000 nM |
| C=C[C@@H]1C[C@]1(NC(=O)[C@@H]1C[C@@H](Oc2ncc(OC)c3ccc(Cl)cc23)CN1C(=O)[C@H](Nc1cccc(C(=O)NC(C)(C)C)c1)C(C)(C)C)C(=O)NS(=O)(=O)C1CC1 [212 second isomer, N-(3-(tert-butylcarbamoyl)phenyl)-3-methyl-D-valyl-(4R)-4-((7-chloro-4-methoxy-1-isoquinolinyl)oxy)-N-((1R,2S)-1-((cyclopropylsulfonyl)carbamoyl)-2-vinylcyclopropyl)-L-prolinamide] | 0.6 to 20 nM | 3 to 100 nM |
| C=C[C@@H]1C[C@]1(NC(=O)[C@@H]1C[C@@H](Oc2ncc(OC)c3ccc(Cl)cc23)CN1C(=O)[C@@H](Nc1ccc(S(=O)(=O)NC(C)(C)C)cc1)C(C)(C)C)C(=O)NS(=O)(=O)C1CC1 [214 first isomer, N-(4-(tert-butylsulfamoyl)phenyl)-3-methyl-L-valyl-(4R)-4-((7-chloro-4-methoxy-1-isoquinolinyl)oxy)-N-((1R,2S)-1-((cyclopropylsulfonyl)carbamoyl)-2-vinylcyclopropyl)-L-prolinamide] | 0.6 to 20 nM | 100 to 1000 nM |
| C=C[C@@H]1C[C@]1(NC(=O)[C@@H]1C[C@@H](Oc2ncc(OC)c3ccc(Cl)cc23)CN1C(=O)[C@@H](Nc1cccc(C(N)=O)c1)C(C)(C)C)C(=O)NS(=O)(=O)C1CC1 [217 first isomer, N-(3-carbamoylphenyl)-3-methyl-L-valyl-(4R)-4-((7-chloro-4-methoxy-1-isoquinolinyl)oxy)-N-((1R,2S)-1-((cyclopropylsulfonyl)carbamoyl)-2-vinylcyclopropyl)-L-prolinamide] | 0.6 to 20 nM | 3 to 100 nM |
| C=C[C@@H]1C[C@]1(NC(=O)[C@@H]1C[C@@H](Oc2ncc(OC)c3ccc(Cl)cc23)CN1C(=O)[C@@H](Nc1cccc(C(=O)N(C)C)c1)C(C)(C)C)C(=O)NS(=O)(=O)C1CC1 [218 first isomer, N-(3-(dimethylcarbamoyl)phenyl)-3-methyl-L-valyl-(4R)-4-((7-chloro-4-methoxy-1-isoquinolinyl)oxy)-N-((1R,2S)-1-((cyclopropylsulfonyl)carbamoyl)-2-vinylcyclopropyl)-L-prolinamide] | 0.6 to 20 nM | 3 to 100 nM |
| C=C[C@@H]1C[C@]1(NC(=O)[C@@H]1C[C@@H](Oc2ncc(OC)c3ccc(Cl)cc23)CN1C(=O)[C@H](Nc1cccc(C(=O)N(C)C)c1)C(C)(C)C)C(=O)NS(=O)(=O)C1CC1 [218 second isomer, N-(3-(dimethylcarbamoyl)phenyl)-3-methyl-D-valyl-(4R)-4-((7-chloro-4-methoxy-1-isoquinolinyl)oxy)-N-((1R,2S)-1-((cyclopropylsulfonyl)carbamoyl)-2-vinylcyclopropyl)-L-prolinamide] | > 200 nM | > 1000 nM |
| C=C[C@@H]1C[C@]1(NC(=O)[C@@H]1C[C@@H](Oc2ncc(OC)c3ccc(Cl)cc23)CN1C(=O)[C@@H](Nc1cccc(S(=O)(=O)N(C)C)c1)C(C)(C)C)C(=O)NS(=O)(=O)C1CC1 [219 first isomer, N-(3-(dimethylsulfamoyl)phenyl)-3-methyl-L-valyl-(4R)-4-((7-chloro-4-methoxy-1-isoquinolinyl)oxy)-N-((1R,2S)-1-((cyclopropylsulfonyl)carbamoyl)-2-vinylcyclopropyl)-L-prolinamide] | > 200 nM | > 1000 nM |
| C=C[C@@H]1C[C@]1(NC(=O)[C@@H]1C[C@@H](Oc2ncc(OC)c3ccc(Cl)cc23)CN1C(=O)[C@H](Nc1cccc(S(=O)(=O)N(C)C)c1)C(C)(C)C)C(=O)NS(=O)(=O)C1CC1 [219 second isomer, N-(3-(dimethylsulfamoyl)phenyl)-3-methyl-D-valyl-(4R)-4-((7-chloro-4-methoxy-1-isoquinolinyl)oxy)-N-((1R,2S)-1-((cyclopropylsulfonyl)carbamoyl)-2-vinylcyclopropyl)-L-prolinamide] | 0.6 to 20 nM | 3 to 100 nM |
| C=C[C@@H]1C[C@]1(NC(=O)[C@@H]1C[C@@H](Oc2ncc(OC)c3ccc(Cl)cc23)CN1C(=O)[C@@H](Nc1ccc(F)c(F)c1)C(C)(C)C)C(=O)NS(=O)(=O)C1CC1 [220 first isomer, N-(3,4-difluorophenyl)-3-methyl-L-valyl-(4R)-4-((7-chloro-4-methoxy-1-isoquinolinyl)oxy)-N-((1R,2S)-1-((cyclopropylsulfonyl)carbamoyl)-2-vinylcyclopropyl)-L-prolinamide] | 0.6 to 20 nM | 3 to 100 nM |
| C=C[C@@H]1C[C@]1(NC(=O)[C@@H]1C[C@@H](Oc2ncc(OC)c3ccc(Cl)cc23)CN1C(=O)[C@H](Nc1ccc(F)c(F)c1)C(C)(C)C)C(=O)NS(=O)(=O)C1CC1 [220 second isomer, N-(3,4-difluorophenyl)-3-methyl-D-valyl-(4R)-4-((7-chloro-4-methoxy-1-isoquinolinyl)oxy)-N-((1R,2S)-1-((cyclopropylsulfonyl)carbamoyl)-2-vinylcyclopropyl)-L-prolinamide] | > 200 nM | 100 to 1000 nM |
| C=C[C@@H]1C[C@]1(NC(=O)[C@@H]1C[C@@H](Oc2ncc(OC)c3ccc(Cl)cc23)CN1C(=O)[C@@H](Nc1ccc(C(=O)N(C)C)cc1)C(C)(C)C)C(=O)NS(=O)(=O)C1CC1 [221 first isomer, N-(4-(dimethylcarbamoyl)phenyl)-3-methyl-L-valyl-(4R)-4-((7-chloro-4-methoxy-1-isoquinolinyl)oxy)-N-((1R,2S)-1-((cyclopropylsulfonyl)carbamoyl)-2-vinylcyclopropyl)-L-prolinamide] | 0.6 to 20 nM | 100 to 1000 nM |
| C=C[C@@H]1C[C@]1(NC(=O)[C@@H]1C[C@@H](Oc2ncc(OC)c3ccc(Cl)cc23)CN1C(=O)[C@H](Nc1ccc(C(=O)N(C)C)cc1)C(C)(C)C)C(=O)NS(=O)(=O)C1CC1 [221 second isomer, N-(4-(dimethylcarbamoyl)phenyl)-3-methyl-D-valyl-(4R)-4-((7-chloro-4-methoxy-1-isoquinolinyl)oxy)-N-((1R,2S)-1-((cyclopropylsulfonyl)carbamoyl)-2-vinylcyclopropyl)-L-prolinamide] | 20 to 200 nM | > 1000 nM |
| C=C[C@@H]1C[C@]1(NC(=O)[C@@H]1C[C@@H](Oc2ncc(OC)c3ccc(Cl)cc23)CN1C(=O)[C@@H](Nc1ccc(S(=O)(=O)NCC)cc1)C(C)(C)C)C(=O)NS(=O)(=O)C1CC1 [223 first isomer, N-(4-(ethylsulfamoyl)phenyl)-3-methyl-L-valyl-(4R)-4-((7-chloro-4-methoxy-1-isoquinolinyl)oxy)-N-((1R,2S)-1-((cyclopropylsulfonyl)carbamoyl)-2-vinylcyclopropyl)-L-prolinamide] | 0.6 to 20 nM | 100 to 1000 nM |
